Measurements as given in patent US7943628B2, “Pyrimidine derivatives” (Pfizer Limited, priority 2005, dated 2011).
Where a name gives a salt, the structure may show the parent alone.

Target: T1, histamine H4 receptor (Homo sapiens, UniProt Q9H3N8)
T1 construct: expressed in transfected cells; host or cells: CHO cells
Test: H4 binding, method 1 ([3H]-histamine filtration binding on CHO cell membranes)
Conditions: H4 binding, method 1; Ki calculated from IC50 (Cheng-Prussoff)
Experimental: Cell pellets from CHO cells expressing the histamine H4 receptor were homogenised in ice-cold 50 mM Tris-HCl/0.5 mM CaCl2 buffer containing a protease inhibitor cocktail (Roche®, United Kingdom) using a ground glass homogeniser. Homogenates were centrifuged at 48000 g for 30 min at 4° C. The membrane pellet was resuspended in fresh buffer and the centrifugation step was repeated as described above. The membrane pellet was resuspended in 50 mM Tris-HCl in the same volume as the original cell pellet. Aliquots of membrane preparations were stored at −80° C. and were used for [^3H]-Histamine binding experiments.
Cell membranes (20-35 μg/well) were incubated for 90 minutes shaking at room temperature with 3 nM [2,5-^3H]Histamine dihydrochloride (30-60 Ci/mmol) in 50 mM Tris-HCl (pH 7.4), with or without competing H4 ligands. The reaction was terminated by rapid filtration through 0.5% polyethylenimine-soaked Unifilter GF/B plates (Packard) followed by three washes with 1 ml ice-cold 50 mM Tris-HCl. Filters were dried for 45 min at 45° C. and bound radiolabel was determined using scintillation counting techniques. Non-specific binding was defined with 10 μM JNJ7777120.

T1 sequence (Q9H3N8 whole entry): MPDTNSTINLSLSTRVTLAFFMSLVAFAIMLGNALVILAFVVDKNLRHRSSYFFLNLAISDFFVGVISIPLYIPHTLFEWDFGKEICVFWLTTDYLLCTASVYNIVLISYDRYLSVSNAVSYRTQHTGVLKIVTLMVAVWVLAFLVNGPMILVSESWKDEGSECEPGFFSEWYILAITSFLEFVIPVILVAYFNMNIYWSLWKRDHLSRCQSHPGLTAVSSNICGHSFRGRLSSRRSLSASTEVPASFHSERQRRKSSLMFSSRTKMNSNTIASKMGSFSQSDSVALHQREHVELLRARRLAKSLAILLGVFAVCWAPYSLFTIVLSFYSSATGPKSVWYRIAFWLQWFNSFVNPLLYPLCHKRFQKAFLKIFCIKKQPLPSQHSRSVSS

Row | Compound | Ki
1 | CN[C@@H]1CCN(c2cc(NC3(C)CC3)nc(N)n2)C1 [Example 149, 6-[(3R)-3-(Methylamino)pyrrolidin-1-yl]-N^4-(1-methylcyclopropyl)pyrimidine-2,4-diamine] | 5.2 nM
2 | CC[C@H](C)Nc1cc(N2CC[C@@H](NC)C2)nc(N)n1 [Example 151, 6-[(3R)-3-(Methylamino)pyrrolidin-1-yl]-N^4-[(1S)-1-methylpropyl]pyrimidine-2,4-diamine] | 12.4 nM
3 | CC[C@@H](C)Nc1cc(N2CC[C@@H](NC)C2)nc(N)n1 [Example 152, 6-[(3R)-3-(Methylamino)pyrrolidin-1-yl]-N^4-[(1R)-1-methylpropyl]pyrimidine-2,4-diamine] | 16.9 nM
4 | CCC(C)Nc1cc(N2CC(NC)C2)ncn1 (centres unmarked) [Example 153, N-(sec-Butyl)-6-[3-(methylamino)azetidin-1-yl]pyrimidin-4-amine] | 11.5 nM
5 | Nc1nc(NCC2CC2)cc(N2CCNCC2)n1 [Example 154, N^4-(Cyclopropylmethyl)-6-piperazin-1-ylpyrimidine-2,4-diamine] | 1.71 nM
6 | CN[C@@H]1CCN(c2cc(NCc3ccc(F)cc3)nc(N)n2)C1 [Example 155, N^4-(4-Fluorobenzyl)-6-[(3R)-3-(methylamino)pyrrolidin-1-yl]pyrimidine-2,4-diamine] | 1.78 nM
7 | CC(C)(C)CNc1cc(N2CCNCC2)nc(N)n1 [Example 156, N^4-(2,2-Dimethylpropyl)-6-piperazin-1-ylpyrimidine-2,4-diamine] | 2.44 nM
8 | CNC1CN(c2cc(NCc3ccc(F)cc3F)nc(N)n2)C1 [Example 157, N^4-(2,4-Difluorobenzyl)-6-[3-(methylamino)azetidin-1-yl]pyrimidine-2,4-diamine] | 2.49 nM
9 | CCCC(C)Nc1cc(N2CC(NC)C2)nc(N)n1 (centres unmarked) [Example 158, 6-[3-(Methylamino)azetidin-1-yl]-N^4-(1-methylbutyl)pyrimidine-2,4-diamine] | 2.59 nM
10 | CNC1CN(c2cc(NCC(C)(C)C)nc(N)n2)C1 [Example 159, N^4-(2,2-Dimethylpropyl)-6-[3-(methylamino)azetidin-1-yl]pyrimidine-2,4-diamine hydrochloride] | 2.62 nM
11 | CNC1CN(c2cc(N[C@H](C)C(C)C)nc(N)n2)C1 [Example 160, N^4-[(1R)-1,2-Dimethylpropyl]-6-[3-(methylamino)azetidin-1-yl]pyrimidine-2,4-diamine] | 2.65 nM
12 | CC[C@H](C)Nc1cc(N2CC(NC)C2)nc(N)n1 [Example 161, 6-[3-(Methylamino)azetidin-1-yl]-N^4-[(1S)-1-methylpropyl]pyrimidine-2,4-diamine] | 2.75 nM
13 | CCCNc1cc(N2CCNCC2)nc(N)n1 [Example 163, 6-Piperazin-1-yl-N^4-propylpyrimidine-2,4-diamine] | 3.78 nM
14 | CCNc1cc(N2CC(NC)C2)nc(N)n1 [Example 164, N^4-Ethyl-6-[3-(methylamino)azetidin-1-yl]pyrimidine-2,4-diamine] | 3.82 nM
15 | Nc1nc(NCC2CC2)cc(N2C[C@H]3CCCN[C@H]3C2)n1 [Example 165, N^4-(Cyclopropylmethyl)-6-[(4aR,7aR)-octahydro-6H-pyrrolo[3,4-b]pyridin-6-yl]pyrimidine-2,4-diamine] | 3.83 nM
16 | CC(C)(C)CNc1cc(N2C[C@@H]3CCCN[C@@H]3C2)nc(N)n1 [Example 166, N^4-(2,2-Dimethylpropyl)-6-[(4aS,7aS)-octahydro-6H-pyrrolo[3,4-b]pyridin-6-yl]pyrimidine-2,4-diamine] | 3.99 nM
17 | CN[C@@H]1CCN(c2cc(NCC3CC3)nc(N)n2)C1 [Example 167, N^4-(Cyclopropylmethyl)-6-[(3R)-3-(methylamino)pyrrolidin-1-yl]pyrimidine-2,4-diamine] | 6.3 nM
18 | CNC1CN(c2cc(NC(C)(C)C)nc(N)n2)C1 [Example 168, N^4-(tert-Butyl)-6-[3-(methylamino)azetidin-1-yl]pyrimidine-2,4-diamine] | 6.5 nM
19 | CC(C)Nc1cc(N2C[C@@H]3CCCN[C@@H]3C2)nc(N)n1 [Example 169, N^4-Isopropyl-6-[(4aS,7aS)-octahydro-6H-pyrrolo[3,4-b]pyridin-6-yl]pyrimidine-2,4-diamine] | 6.77 nM
20 | CCNc1cc(N2CC(N)C2)nc(N)n1 [Example 170, 6-(3-Aminoazetidin-1-yl)-N^4-ethylpyrimidine-2,4-diamine] | 8.55 nM
21 | Nc1nc(NCC2CC2)cc(N2CC(N)C2)n1 [Example 171, 6-(3-Aminoazetidin-1-yl)-N^4-(cyclopropylmethyl)pyrimidine-2,4-diamine] | 9.21 nM
22 | Nc1nc(NC2CC2)cc(N2CCC3NCCC3C2)n1 (stereo not drawn) [Example 172, N^4-Cycopropyl-6-[(3aR*,7aS*)-octahydro-5H-pyrrolo[3,2-c]pyridin-5-yl]pyrimidine-2,4-diamine] | 9.3 nM

Row | Compound | Ki
23 | CNC1CN(c2cc(N3CCC(C)CC3)nc(N)n2)C1 [Example 173, 4-[3-(Methylamino)azetidin-1-yl]-6-(4-methylpiperidin-1-yl)pyrimidin-2-amine] | 10.1 nM
24 | CN[C@@H]1CCN(c2cc(NCC3CCCC3)nc(N)n2)C1 [Example 174, N^4-(Cyclopentylmethyl)-6-[(3R)-3-(methylamino)pyrrolidin-1-yl]pyrimidine-2,4-diamine] | 10.6 nM
25 | CCNc1cc(N2CCCNCC2)nc(N)n1 [Example 175, 6-(1,4-Diazepan-1-yl)-N^4-ethylpyrimidine-2,4-diamine] | 12.3 nM
26 | CN(C)CCNc1cc(NCC2CC2)nc(N)n1 [Example 176, N^4-(Cyclopropylmethyl)-N6-[2-(dimethylamino)ethyl]pyrimidine-2,4,6-triamine] | 15.1 nM
27 | CN[C@H]1CCN(c2cc(NCC(C)(C)C)nc(N)n2)C1 [Example 177, N^4-(2,2-Dimethylpropyl)-6-[(3S)-3-(methylamino)pyrrolidin-1-yl]pyrimidine-2,4-diamine] | 16 nM
28 | Nc1nc(NC2CCC2)cc(N2C[C@@H]3CCCN[C@@H]3C2)n1 [Example 178, N^4-Cyclobutyl-6-[(4aS,7aS)-octahydro-6H-pyrrolo[3,4-b]pyridin-6-yl]pyrimidine-2,4-diamine] | 16.1 nM
29 | CNC1CN(c2cc(NC3CCC3)ncn2)C1 [Example 179, N-Cyclobutyl-6-[3-(methylamino)azetidin-1-yl]pyrimidin-4-amine] | 16.5 nM
30 | CCCNc1cc(N2CC[C@@H](NC)C2)nc(N)n1 [Example 180, 6-[(3R)-3-(Methylamino)pyrrolidin-1-yl]-N^4-propylpyrimidine-2,4-diamine] | 17.4 nM
31 | CN[C@@H]1CCN(c2cc(NC3CCC3)ncn2)C1 [Example 181, N-Cyclobutyl-6-[(3R)-3-(methylamino)pyrrolidin-1-yl]pyrimidin-4-amine] | 17.6 nM
32 | CNC1CN(c2cc(NCCOC)nc(N)n2)C1 [Example 182, N^4-(2-Methoxyethyl)-6-[3-(methylamino)azetidin-1-yl]pyrimidine-2,4-diamine] | 19.8 nM
33 | CN[C@@H]1CCN(c2cc(NCC(C)(C)C)ncn2)C1 [Example 183, N-(2,2-Dimethylpropyl)-6-[(3R)-3-(methylamino)pyrrolidin-1-yl]pyrimidin-4-amine] | 20 nM
34 | C[C@H]1CN(c2cc(NCC3CC3)nc(N)n2)CCN1 [Example 184, N^4-(Cyclopropylmethyl)-6-[(3S)-3-methylpiperazin-1-yl]pyrimidine-2,4-diamine] | 20.4 nM
35 | CCNc1cc(N2CCCN(C)CC2)nc(N)n1 [Example 185, N^4-Ethyl-6-(4-methyl-1,4-diazepan-1-yl)pyrimidine-2,4-diamine] | 20.5 nM
36 | CNC1(C)CN(c2cc(NCC(C)(C)C)nc(N)n2)C1 [Example 186, N^4-(2,2-Dimethylpropyl)-6-[3-methyl-3-(methylamino)azetidin-1-yl]pyrimidine-2,4-diamine] | 22.2 nM
37 | CC(C)Nc1cc(N2CCNCC2)nc(N)n1 [Example 187, N^4-Isopropyl-6-piperazin-1-ylpyrimidine-2,4-diamine] | 22.4 nM
38 | CNC1CN(c2cc(NC3CC3)ncn2)C1 [Example 189, N-Cyclopropyl-6-[3-(methylamino)azetidin-1-yl]pyrimidin-4-amine] | 25.8 nM
39 | CC(C)(C)CNc1cc(N2CC(N)C2)nc(N)n1 [Example 190, 6-(3-Aminoazetidin-1-yl)-N^4-(2,2-dimethylpropyl)pyrimidine-2,4-diamine] | 27.7 nM
40 | CN1C[C@@H]2C[C@H]1CN2c1cc(NCC(C)(C)C)nc(N)n1 [Example 191, N^4-(2,2-Dimethylpropyl)-6-[(1S,4S)-5-methyl-2,5-diazabicyclo[2.2.1]hept-2-yl]pyrimidine-2,4-diamine] | 28.2 nM
41 | CC(C)(C)CNc1cc(N2CC(N3CCCC3)C2)ncn1 [Example 192, N-(2,2-Dimethylpropyl)-6-(3-pyrrolidin-1-ylazetidin-1-yl)pyrimidin-4-amine] | 28.7 nM
42 | CN(C)CCNc1cc(NCC2CC2)ncn1 [Example 194, N-(Cyclopropylmethyl)-N′-[2-(dimethylamino)ethyl]pyrimidine4,6-diamine] | 32.4 nM
43 | CCC(C)CNc1cc(N2CC[C@@H](N)C2)nc(N)n1 (stereo partly drawn) [Example 195, 6-[(3R)-3-Aminopyrrolidin-1-yl]-N^4-(2-methylbutyl)pyrimidine-2,4-diamine] | 32.6 nM
44 | CNC1(C)CN(c2cc(NCC3CC3)nc(N)n2)C1 [Example 196, N^4-(Cyclopropylmethyl)-6-[3-methyl-3-(methylamino)azetidin-1-yl]pyrimidine-2,4-diamine] | 33.1 nM
